# Read-outs that look alike come from different tables or passages of the source. Marks after values point to notes of the source that are not given here.
# Columns and labels:
# [1] = test system: NMRI mice; experiment: Arachidonic acid-induced pinnal swelling in mice (irritant contact dermatitis, 2.1.1.); assay type: in vivo; details: prophylactic, epicutaneous, pinnal weight
# Method: Skin irritation with arachidonic acid or cantharidin is often used to experimentally induce inflammation in order to evaluate the anti-inflammatory activity of a compound [see e.g. Inflammation 8 (1984) 134-135; 10 (1986) 205-214]. NMRI mice (8 animals per group) receive 10 µl of a 10 % solution of arachidonic acid [J.M. Young et al., J. Invest. Derm. 82 (1986) 367-371] in acetone or, respectively, 0.08 % cantharidin [K.E. Swingle et al., Arch. Int. Pharmacodyn. Ther. 254 (1981) 168-176] in acetone applied to the medial and lateral surface of the right external ear. Treatment is performed either prophylactically 30 minutes before irritation (arachidonic acid) or, respectively, either simultaneously with the application of irritant solution or therapeutically 20 minutes after irritation (cantharidin), by a single epicutaneous application of the test compound dissolved in a mixture of N,N-dimethylacetamide, acetone and alcohol (2:2:4). The evaluation of the test group is effected by comparison with a control group of animals having received on the right ear lobe only the carrier substance or the irritant solution. The animals are killed 1.5 hours (arachidonic acid) or, respectively, 17 hours (cantharidin) after application of the irritant and efficacy in assessed by determination of the differences in auricular weight. Differences in weights (D) of right (involved) and left (uninvolved) pinnae of animals treated with test compound and arachidonic acid or cantharidin (T-group) are compared with differences in mice treated with arachidonic acid only or cantharidin only (C-group). Efficacy (%) is calculated according to the equation: [formula]
# [2] = test system: 5,12-lipoxygenase; experiment: 5,12-lipoxygenase inhibition (neutrophil functions); assay type: cell-based; details: read-out: IC₅₀ for 5,12-lipoxygenase
# [3] = test system: Macrophages isolated from the bone marrow of mice; experiment: Zymosan-stimulated release of hydrogen peroxide; assay type: cell-based; details: Mus musculus, Macrophage, 2 hours at 37° C, read-out: IC₅₀, zymosan-stimulated release of hydrogen peroxide
# Method: The production of hydrogen peroxide is used as a measure for the respiratory burst of phagocytic cells. Macrophages 10 to 14 days old, isolated from the bone marrow of mice are incubated for 10 to 30 minutes in the presence of the test compound. Zymosan (0.5 ml) is then added as phagocytic stimulant and the mixture is incubated for a further 2 hours at 37° C in the presence of homovallinic acid (0.5 ml, 400 µM) and horse radish peroxidase (4 U/ml). The reaction is stopped by the addition of 0.25 ml 0.1 M glycine-NaOH buffer, pH 12, containing 25 mM EDTA, the samples centrifuged at 2200 g for 10 minutes, and the homovallinic acid oxidation product, as a measure of the amount of H₂O₂ produced, measured fluorimetrically.
# [4] = test system: OF₁-mouse resident peritoneal macrophages; experiment: Zymosan-induced release of TXB₂, PGE₂ and LTC₄; assay type: cell-based; details: Peritoneal macrophage, 2 hours
# Method: The test compound is added in various concentrations to monolayers of OF₁-mouse resident peritoneal macrophages isolated as described in J. Schnyder and M. Baggiolini, J. Exp. Med. 148 (1978) 435-450. 0.5 ml of the suspension containing 1.2 x 10⁶ cells/ml DMEM (Dulbecco's modified Eagles medium, non-essential amino acids, 2 mM L-glutamine, 100 U/ml penicillin/streptomycin) containing 2 % heat-inactivated fetal calf serum and 20 U heparin/ml is added to each well of 24-well plates (diameter 1.6 cm) and allowed to adhere at 37°C for 2 hours in 5 % CO₂/air. The monolayers are then washed with PBS and 0.5 ml DMEM containing 1 % heat-inactivated fetal calf serum added. Various concentrations of the test substance in the same medium (containing a maximum final concentration of 1 % DMSO) are added, the final volume being 0.98 ml, and after 10 minutes at 37°C, the cells are stimulated by addition of 20 µl of a 1-20 v/v dilution of zymosan particles (Sigma Chemie, Deisenhofen, FRG) in 50 mg/ml PBS. After 2 hours at 37° C, the media are removed, centrifuged at 1300 g for 5 minutes and decanted. The cells are lysed with 1ml 0.01 % digitonin. The supernatants are then analysed by radioimmunoassay procedures for thromboxane B₂, prostaglandin E₂ and leukotriene C₄. Lactate dehydrogenase activities in the medium and cell lysates are also measured as an indication of cell toxicity.
# [5] = test system: platelets; experiment: Thromboxane B₂ production in platelets; assay type: cell-based; details: Platelet, read-out: IC₅₀ for thromboxane B₂ production
# [6] = test system: mast cells; experiment: Polymyxin-stimulated release from mast cells; assay type: cell-based; details: Mast cell
# [7] = test system: lactate dehydrogenase release; experiment: Cytotoxicity: release of lactate dehydrogenase; assay type: cell-based; details: cytotoxicity control of the in vitro assays
# Method: Macrophages 10 to 14 days old isolated from the bone marrow of mice are incubated in monolayers with the test compound in the presence of Concanavalin A (Con A) (100 µg/ml) as soluble stimulant. After 24 hours the cell-free medium is collected and macrophage activation is investigated biochemically as the extent of plasminogen activator release, assayed photometrically as the plasminogen-dependent amidolysis of D-Val-Phe-Lys-4-nitroanilide according to the principles described in J.C. Drapier et al., Biochemie 61 (1979) 463-471. Cell viability is assayed by measurement of lactate dehydrogenase release according to the method of H.U. Bergmeyer and E. Bernt, Methoden der Enzymatischen Analyse, 3. Auflage, Verlag Chemie (1974) 612-615, adapted as a kinetic assay using microtiter plates. All cultures are checked microscopically for qualitative morphological modification.
# The test compound is added in various concentrations to monolayers of OF₁-mouse resident peritoneal macrophages isolated as described in J. Schnyder and M. Baggiolini, J. Exp. Med. 148 (1978) 435-450. […] The supernatants are then analysed by radioimmunoassay procedures for thromboxane B₂, prostaglandin E₂ and leukotriene C₄. Lactate dehydrogenase activities in the medium and cell lysates are also measured as an indication of cell toxicity.
# [8] = test system: guinea pigs; experiment: UV-erythema model (2.2.); assay type: in vivo; details: therapeutic, test concentration 5.0 %, topical, erythema score
# Method: Female guinea pigs weighing 250-300 g are used. On the day before experiment they are shorn on both flanks followed by a final dry shaving without skin irritation two hours before UV exposure. Two circular areas (10 mm diameter) on each flank are exposed 10 seconds to ultraviolet rays from […] at an intensity of 16 mW/cm² (UVA) and 500 mW/cm² (UVB). Drugs are administered topically immediately after exposure to UV light in a volume of 50 µl of 25 % ethanol and 75 %polyethylenglycol-400 to the irradiated skin areas on the right flank. Two areas on the left flank serve as vehicle control. Erythema is assessed visually 3.5 and 5.5 hours after irradiation and results expressed in scores. Changes in erythema intensity after drug administration are expressed as percentages of the scored erythema intensity in vehicle-treated areas.
smiles,measurement,setting,value
"CN(C/C=C/c1ccc(O)cc1)Cc1cccc2ccccc12 [compound of the invention, (E)-N-methyl-N-[3-(4-hydroxyphenyl)-2-propenyl]-1-naphthalene-methanamine]",Efficacy (%),[1]; test concentration 1.2 %,33** %
same,Efficacy (%),[1]; test concentration 3.6 %,48*** %
same,IC50,[2],45 µM
same,IC50,[3],2.1 µM
same,IC50,[4]; read-out: IC₅₀ for LTC₄,8 µM
same,IC50,[4]; read-out: IC₅₀ for PGE₂,1.5 µM
same,IC50,[4]; read-out: IC₅₀ for TXB₂,6 µM
same,IC50,[5],100 µM
same,IC50,[6]; read-out: IC₅₀ for polymyxin-stimulated release of histamine,> 100 µM
same,IC50,[6]; read-out: IC₅₀ for polymyxin-stimulated release of β-glucosaminidase,> 100 µM
same,release of lactate dehydrogenase,[7],below 10%
same,Efficacy (%),[8],27%

# — patent EP0385952A2, “Use of a naphthalenmethanamino derivative as antiinflammatory agent and pharmaceutical compositions containing it” (SANDOZ AG, priority 1989, dated 1990)
